# Structures can show the parent of a compound that is named as a salt.
# Tests used:
# [1] = tested on: P. aeruginosa ATCC27853; experiment: microbe, parasite or virus in culture; assay type: cell-based; details: Pseudomonas aeruginosa, read-out: MIC
# Protocol: (§1) Bacterial strains were purchased from the American Type Culture Collection (ATCC). All clinical strains were isolated from human clinical specimens by the Medical Laboratory Center of Zhongda Hospital (Nanjing, Jiangsu, China). Ndm-1, tem-1, ctx-m-1, shv-1 -carrying bacteria were constructed as previously described. The recombinant bacteria carrying drug-resistant genes were prepared in LB nutrient and induced by IPTG (1 mM) for 4 h before text. Other bacterial strains were respectively prepared in MHB and Columbia Blood Agar Base.
# (§2) A standard micro-broth serial dilution assay was used to measure MIC of peptides. MIC was obtained by a microplate reader at 600 nm. MBC was determined as previously described.
# [2] = tested on: E. cloacae S3 (AmpC (+)); experiment: microbe, parasite or virus in culture; assay type: cell-based; details: Enterobacter cloacae
# Protocol: as §1, §2
# [3] = tested on: P. aeruginosa T8 (ESBLs (+)); experiment: microbe, parasite or virus in culture; assay type: cell-based; details: Pseudomonas aeruginosa
# Protocol: as §1, §2
# [4] = tested on: P. aeruginosa T6 (ESBLs (+)); experiment: microbe, parasite or virus in culture; assay type: cell-based; details: Pseudomonas aeruginosa
# Protocol: as §1, §2
# [5] = tested on: E. coli A2 (ESBLs (+)); experiment: microbe, parasite or virus in culture; assay type: cell-based; details: Escherichia coli
# Protocol: as §1, §2
# [6] = tested on: Shigella flexneri; experiment: microbe, parasite or virus in culture; assay type: cell-based
# Protocol: as §1, §2
# [7] = tested on: E. cloacae S1 (AmpC (+)); experiment: microbe, parasite or virus in culture; assay type: cell-based; details: Enterobacter cloacae
# Protocol: as §1, §2
# [8] = tested on: E. coli A5 (ESBLs (+)); experiment: microbe, parasite or virus in culture; assay type: cell-based; details: Escherichia coli
# Protocol: as §1, §2
# [9] = tested on: S. pneumoniae ATCC 49619; experiment: microbe, parasite or virus in culture; assay type: cell-based; details: Streptococcus pneumoniae, ATCC49619, read-out: MIC
# Protocol: as §1, §2
# [10] = tested on: E. coli A9 (ESBLs (+)); experiment: microbe, parasite or virus in culture; assay type: cell-based; details: Escherichia coli
# Protocol: as §1, §2
# [11] = tested on: E. faecalis; experiment: microbe, parasite or virus in culture; assay type: cell-based; details: Enterococcus faecalis, read-out: MIC
# Protocol: as §1, §2
# [12] = tested on: S. aureus ATCC25923; experiment: microbe, parasite or virus in culture; assay type: cell-based; details: Staphylococcus aureus, read-out: MIC
# Protocol: as §1, §2
# [13] = tested on: S. epidermidis ATCC35984; experiment: microbe, parasite or virus in culture; assay type: cell-based; details: Staphylococcus epidermidis, read-out: MIC
# Protocol: as §1, §2
# [14] = tested on: E. faecium; experiment: microbe, parasite or virus in culture; assay type: cell-based; details: Enterococcus faecium, read-out: MIC
# Protocol: as §1, §2
# [15] = tested on: E. coli ATCC25922; experiment: microbe, parasite or virus in culture; assay type: cell-based; details: Escherichia coli, micro-broth serial dilution, 600 nm, read-out: MIC
# Protocol: as §1, §2
# [16] = tested on: P. aeruginosa T1 (ESBLs (+)); experiment: microbe, parasite or virus in culture; assay type: cell-based; details: Pseudomonas aeruginosa
# Protocol: as §1, §2
# [17] = tested on: MSSA D1; experiment: microbe, parasite or virus in culture; assay type: cell-based, Staphylococcus aureus; details: Staphylococcus aureus; MSSA D1, clinical strain; read-out: MIC
# Protocol: as §1, §2
# [18] = tested on: MRSA M108; experiment: microbe, parasite or virus in culture; assay type: cell-based, Staphylococcus aureus; details: Staphylococcus aureus, MRSA
# Protocol: as §1, §2
# [19] = tested on: MSSA D4; experiment: microbe, parasite or virus in culture; assay type: cell-based, Staphylococcus aureus; details: Staphylococcus aureus; MSSA D4, clinical strain; read-out: MIC
# Protocol: as §1, §2
# [20] = tested on: MRSA M101; experiment: microbe, parasite or virus in culture; assay type: cell-based, Staphylococcus aureus; details: Staphylococcus aureus, MRSA
# Protocol: as §1, §2
# [21] = tested on: K. peneumoniae B6 (ESBLs (+)); experiment: organism not typed; assay type: cell-based
# Protocol: as §1, §2
# [22] = tested on: K. peneumoniae B9 (ESBLs (+)); experiment: organism not typed; assay type: cell-based
# Protocol: as §1, §2
# [23] = tested on: K. peneumoniae B4 (ESBLs (+)); experiment: organism not typed; assay type: cell-based
# Protocol: as §1, §2
# [24] = tested on: K. peneumoniae ATCC4352; experiment: organism not typed; assay type: cell-based; details: read-out: MIC
# Protocol: as §1, §2
# [25] = tested on: MRSE N109; experiment: microbe, parasite or virus in culture; assay type: cell-based, Staphylococcus epidermidis; details: Staphylococcus epidermidis, MRSE
# Protocol: as §1, §2
# [26] = tested on: MSSE E8; experiment: microbe, parasite or virus in culture; assay type: cell-based, Staphylococcus epidermidis; details: Staphylococcus epidermidis; MSSE E8, clinical strain; read-out: MIC
# Protocol: as §1, §2
# [27] = tested on: MRSE N104; experiment: microbe, parasite or virus in culture; assay type: cell-based, Staphylococcus epidermidis; details: Staphylococcus epidermidis, MRSE
# Protocol: as §1, §2
# [28] = tested on: MSSE E3; experiment: microbe, parasite or virus in culture; assay type: cell-based, Staphylococcus epidermidis; details: Staphylococcus epidermidis; MSSE E3, clinical strain; read-out: MIC
# Protocol: as §1, §2
# [29] = tested on: PISP F22; experiment: microbe, parasite or virus in culture; assay type: cell-based, Streptococcus pneumoniae; details: Streptococcus pneumoniae; PISP F22, clinical strain; read-out: MIC
# Protocol: as §1, §2
# [30] = tested on: PRSP P112; experiment: microbe, parasite or virus in culture; assay type: cell-based, Streptococcus pneumoniae; details: Streptococcus pneumoniae, PRSP
# Protocol: as §1, §2
# [31] = tested on: PRSP P105; experiment: microbe, parasite or virus in culture; assay type: cell-based, Streptococcus pneumoniae; details: Streptococcus pneumoniae, PRSP
# Protocol: as §1, §2
# [32] = tested on: PISP F34; experiment: microbe, parasite or virus in culture; assay type: cell-based, Streptococcus pneumoniae; details: Streptococcus pneumoniae; PISP F34, clinical strain; read-out: MIC
# Protocol: as §1, §2
# [33] = tested on: Penicillin-resistant E. coli; experiment: Local E. coli infection in scalded mouse model; assay type: in vivo, mice; details: 7th day; MSI-1 5 and 10 mg/kg, polymyxin B; p<0.01 vs the model group
# Protocol: To further investigate whether MSI-1 could protect from bacterial infection of the skin, mice were anesthetized with pentobarbital sodium (50 mg/kg, i.p) and shaved on the dorsal surfaces. The depilated skin was secured with 2-cm-diameter plastic containers that filled up with boiling water at contact time 10 s. Afterwards, a full-thickness wound (2 cm in diameter) was cut on the burned skin of each mouse. Penicillin-resistant E. coli suspension (100 µl, 1× 10^10 CFU/ml) was slowly inoculated over wound with a pipette tip, and a gentle stream of air was aimed over the inoculation site until skin appeared wet but absent of any standing volume from the inoculum suspension. Two hours later, vehicle (3% CMC-Na), MSI-1 or polymyxin, which was suspended in sterile CMC-Na (3%) in PBS at concentration of 10, 5, 2.5 mg/ml (MSI-1) or 5 mg/ml (polymyxin), was inoculated on the same area with a pipette tip, 1 ml/kg, once a day (n=15 per group). Mice were fed in cages individually to avoid cross infection and were treated daily for 7 consecutive days. At 3rd and 7th days, cutaneous wound healing and bacteria counts in skin lesion were measured. Moreover, 12 h after the last treatment, blood samples were collected from the retro-orbital venous plexus under anesthesia (pentobarbital sodium, 50 mg/kg). Finally, all animals were euthanized by cervical dislocation to collect the lung samples for counting live bacteria. The contents of TNF-α and IL-6 in skin homogenates and serum were measured by ELISA. Skin lesion was fixed by 4% paraformaldehyde for H&E staining. The expression levels of EGF and VEGF in skin lesion were examined by immunohistochemistry. In addition, the wound scratch assay was also performed on HaCaT cells to further test whether MSI-1 improved wound healing by promoting keratinocyte migration.
# [34] = tested on: penicillin resistant-E. coli isolates; experiment: Acute systemic E. coli infection in mice; assay type: in vivo, BALB/c mice; details: 7 days; polymyxin 5 mg/kg
# Protocol: BALB/c mice (5-6 weeks) were purchased from the Laboratory Animal Center of Yangzhou University (Yangzhou, Jiangsu, China) and intraperitoneally (ip) injected with 500 μl (5× 10^8 CFU/ml) of penicillin resistant-E. coli isolates. Mice in MSI-1 treated groups (10, 5 and 2.5 mg/kg, n=16/group) and polymyxin treated group (5 mg/kg) were administered after 2 h post bacterial inoculation. After 12 h, six mice in each group were anesthetized with pentobarbital sodium (50 mg/kg body weight, i.p) and euthanized by cervical dislocation to count bacterial colonies in blood, lung, spleen, kidney and liver. Lung homogenates were collected for Gram staining. Moreover, serum TNF-α and IL-6 were measured by ELISA kits. The procedure of H&E staining for mouse lung was adapted from a published report. The survival and weight of other mice were monitored daily up to 7 days.
compound,measurement,setting,value
"CC1(C)S[C@@H]2[C@H](NC(=O)Cc3ccccc3)C(=O)N2[C@H]1C(=O)O [Penicillin, Penicillin G sodium salt]",MIC,[1],0.5 µg/mL
same,MIC,[2],> 256 µg/mL
same,MIC,[3],> 256 µg/mL
same,MIC,[4],> 256 µg/mL
same,MIC,[5],> 256 µg/mL
same,MIC,[6],> 256 µg/mL
same,MIC,[7],> 256 µg/mL
same,MIC,[8],> 256 µg/mL
same,MIC,[9],0.25 µg/mL
same,MIC,[10],> 256 µg/mL
same,MIC,[11],> 256 µg/mL
same,MIC,[12],0.125 µg/mL
same,MIC,[13],0.5 µg/mL
same,MIC,[14],> 256 µg/mL
same,MIC,[15],0.25 µg/mL
same,MIC,[16],> 256 µg/mL
same,MIC,[17],0.5 µg/mL
same,MIC,[18],> 256 µg/mL
same,MIC,[19],0.125 µg/mL
same,MIC,[20],> 256 µg/mL
same,MIC,[21],> 256 µg/mL
same,MIC,[22],> 256 µg/mL
same,MIC,[23],> 256 µg/mL
same,MIC,[24],1 µg/mL
same,MIC,[25],> 256 µg/mL
same,MIC,[26],1 µg/mL
same,MIC,[27],> 256 µg/mL
same,MIC,[28],2 µg/mL
same,MIC,[29],1 µg/mL
same,MIC,[30],> 256 µg/mL
same,MIC,[31],> 256 µg/mL
same,MIC,[32],0.5 µg/mL
Polymyxin B,bacterial colonies in the lung and blood,[33],obviously decreased
same,body weight,[34],marked weight maintenance effect
